This test has as its target T1, human 5HT1A receptor (Homo sapiens, UniProt P08908).
T1 construct: expressed in transfected cells
T1 sequence (P08908 1-422): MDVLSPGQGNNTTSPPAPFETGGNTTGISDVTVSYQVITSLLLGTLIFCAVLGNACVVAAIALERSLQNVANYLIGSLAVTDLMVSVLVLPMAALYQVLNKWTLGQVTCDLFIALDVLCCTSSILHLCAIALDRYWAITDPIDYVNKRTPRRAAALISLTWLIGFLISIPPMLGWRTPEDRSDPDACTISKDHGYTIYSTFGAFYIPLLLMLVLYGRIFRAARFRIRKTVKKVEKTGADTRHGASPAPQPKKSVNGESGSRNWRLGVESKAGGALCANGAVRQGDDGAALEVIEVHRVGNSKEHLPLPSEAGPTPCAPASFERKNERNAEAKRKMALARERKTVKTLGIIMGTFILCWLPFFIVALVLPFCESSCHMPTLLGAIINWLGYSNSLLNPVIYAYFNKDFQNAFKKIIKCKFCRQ
Briefly: displacement of [^3 H] 8-OH-DPAT binding in CHO cells stably transfected with human 5HT1A receptor. To be noted: final ligand concentration 1.5 nM, 30 minute incubation at room temperature. As for the experimental part:
The compounds of this invention are 5-HT1A agonists. Affinity for the serotonin 5-HT1A receptor was established in a standard pharmacological test procedure which measures the compound's ability to displace [^3 H] 8-OH-DPAT binding in CHO cells stably transfected with human 5HT1A receptor. Stably transfected CHO cells are grown in DMEM containing 10% heat inactivated FBS and non-essential amino acids. Cells are scraped off the plate, transferred to centrifuge tubes, and washed twice by centrifugation (2000 rpm for 10 min., 4° C.) in buffer (50 mM Tris pH 7.5). The resulting pellets are aliquoted and placed at -80° C. On the day of assay, the cells are thawed on ice and resuspended in buffer. The binding assay is performed in a 96 well microtiter plate in a total volume of 250 μL. Non-specific binding is determined in the presence of […], final ligand concentration is 1.5 nM. Following a 30 minute incubation at room temperature, the reaction is terminated by the addition of ice cold buffer and rapid filtration through a GF/B filter presoaked for 30 minutes in 0.5% PEI. Compounds are initially tested in a single point assay to determine percent inhibition at […], and Ki values are determined for the active compounds.

From patent US6057340A, “Oxazole derivatives as serotonin-1A receptor agonists” (American Home Products Corporation, priority 1999, dated 2000) come the findings set out here.

Turning to `COc1ccccc1C1CCN(Cc2oc(C3CCCCC3)nc2Cc2ccccc2)CC1` [Example 9, 1-(4-Benzyl-2-cyclohexyl-oxazol-5-ylmethyl)-4-(2-methoxy-phenyl)-piperidine], the Ki was determined as 4.4 nM.

As a reminder, the Ki is the dissociation constant of the complex between target and ligand, obtained from inhibition or displacement. Higher therefore signals a looser hold on the target.
